Measurements as given in BindingDB's records for patent US20250188057 (Merck Sharp & Dohme, 2025).

Molecular target: T1, Ceramide glucosyltransferase (Homo sapiens, UniProt Q16739)
T1 sequence (Q16739 whole entry): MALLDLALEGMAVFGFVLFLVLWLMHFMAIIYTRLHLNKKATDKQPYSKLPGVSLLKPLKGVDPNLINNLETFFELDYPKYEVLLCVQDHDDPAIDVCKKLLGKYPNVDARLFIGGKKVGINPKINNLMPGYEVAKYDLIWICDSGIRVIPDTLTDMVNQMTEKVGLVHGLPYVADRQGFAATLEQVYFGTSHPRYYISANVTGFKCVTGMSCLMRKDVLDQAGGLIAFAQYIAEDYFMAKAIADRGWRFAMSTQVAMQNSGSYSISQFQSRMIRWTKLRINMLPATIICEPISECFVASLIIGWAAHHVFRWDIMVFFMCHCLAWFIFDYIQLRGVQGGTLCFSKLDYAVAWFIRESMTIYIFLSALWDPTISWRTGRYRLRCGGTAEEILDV
Experiment: UDP-Glo Glucosylceramide Synthase Biochemical Assay
Description: Using Promega's UDP-Glo™ Glycosyltransferase assay kit (Promega Corporation, Madison, WI, USA (Promega)), GCS activity was indirectly measured by detecting the amount of UDP produced. An aliquot of GCS enzyme (1.5 μg crude golgi preparation, total protein) and titrated test compound were aliquoted to each well and incubated for 30 minutes at room temperature. […] An equivalent volume of substrate mixture was then added to each well. Following a 20 h incubation at room temperature to allow for GCS turnover of substrate, an equal volume of UDP detection reagent (Promega) was added to each well and incubated for an additional 75 minutes at room temperature to simultaneously convert the accumulated UDP product into ATP and generate light in a luciferase reaction.

IC50: 3.15 µM
Structure (SMILES): CN1C(=O)CC(COc2nc(C3CC3)ncc2C#N)C1c1cccc(Cl)c1 (stereo unspecified) [US20250188057, Compound 101]
